According to US8022099B2, “N-benzyl pyrrolidine derivatives” (Hoffmann-La Roche Inc., priority 2008, dated 2011):

Molecular target: T1, human NK3 receptor (Homo sapiens, UniProt P29371)
T1 construct: expressed in transfected cells; host or cells: HEK293 cells (transient expression), membrane preparation
T1 sequence (P29371 1-465): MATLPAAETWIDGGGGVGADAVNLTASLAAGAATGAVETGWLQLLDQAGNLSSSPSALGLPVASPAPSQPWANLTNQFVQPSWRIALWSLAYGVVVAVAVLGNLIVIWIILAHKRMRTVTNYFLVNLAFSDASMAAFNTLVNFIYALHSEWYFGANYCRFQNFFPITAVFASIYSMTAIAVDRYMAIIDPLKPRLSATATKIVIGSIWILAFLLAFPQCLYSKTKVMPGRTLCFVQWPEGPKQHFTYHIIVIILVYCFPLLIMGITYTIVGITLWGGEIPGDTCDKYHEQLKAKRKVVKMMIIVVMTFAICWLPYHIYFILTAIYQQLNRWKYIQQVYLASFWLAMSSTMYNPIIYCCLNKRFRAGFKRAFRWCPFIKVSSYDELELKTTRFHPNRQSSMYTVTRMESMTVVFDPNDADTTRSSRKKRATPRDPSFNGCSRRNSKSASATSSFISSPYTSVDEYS
Test: [3H]SR142801 competition binding assay
Conditions: hNK3 receptor binding, [3H]SR142801, membranes from HEK293 cells transiently expressing recombinant human NK3 receptor
Method in brief: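 Membranes from HEK293 cells transiently expressing human NK3 were incubated 75 min at RT with [3H]SR142801 at its KD and inhibitor (0.0003-10 μM) in Tris-HCl pH 7.4/MnCl2/phosphoramidon/BSA. Nonspecific binding used 10 μM SB222200. Ki from Hill-fitted IC50 via Cheng-Prusoff, duplicate determinations.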

Ki [nM] | SMILES
62.2 | CC(=O)NC1CCN(CCCCC(=O)N2C[C@H](c3ccc(Cl)c(Cl)c3)[C@@H](N(C)Cc3ccc(C(F)(F)F)c(F)c3)C2)CC1 (racemic) [Example 105, N-[1-(5-{(3SR,4RS)-3-(3,4-Dichloro-phenyl)-4-[(3-fluoro-4-trifluoromethyl-benzyl)-methyl-amino]-pyrrolidin-1-yl}-5-oxo-pentyl)-piperidin-4-yl]-acetamide]
81.2 | CN(Cc1ccc(C(F)(F)F)c(F)c1)[C@H]1CN(C(=O)CCCCN2CCOCC2)C[C@@H]1c1cccc(Cl)c1 (racemic) [Example 107, 1-{(3SR,4RS)-3-(3-Chloro-phenyl)-4-[(3-fluoro-4-trifluoromethyl-benzyl)-methyl-amino]-pyrrolidin-1-yl}-5-morpholin-4-yl-pentan-1-one]
45.7 | CN(Cc1ccc(C(F)(F)F)c(F)c1)[C@H]1CN(C(=O)CN2CCOCC2)C[C@@H]1c1ccc(Cl)c(Cl)c1 (racemic) [Example 113, 1-{(3SR,4RS)-3-(3,4-Dichloro-phenyl)-4-[(3-fluoro-4-trifluoromethyl-benzyl)-methyl-amino]-pyrrolidin-1-yl}-2-morpholin-4-yl-ethanone]
40.2 | CN1CCN(CC(=O)N2C[C@H](c3ccc(Cl)c(Cl)c3)[C@@H](N(C)Cc3ccc(C(F)(F)F)c(F)c3)C2)CC1 (racemic) [Example 114, 1-{(3SR,4RS)-3-(3,4-Dichloro-phenyl)-4-[(3-fluoro-4-trifluoromethyl-benzyl)-methyl-amino]-pyrrolidin-1-yl}-2-(4-methyl-piperazin-1-yl)-ethanone]
13 | CN(Cc1ccc(C(F)(F)F)c(F)c1)[C@H]1CN(C(=O)CN2CCN(S(C)(=O)=O)CC2)C[C@@H]1c1ccc(Cl)c(Cl)c1 (racemic) [Example 115, 1-{(3SR,4RS)-3-(3,4-Dichloro-phenyl)-4-[(3-fluoro-4-trifluoromethyl-benzyl)-methyl-amino]-pyrrolidin-1-yl}-2-(4-methanesulfonyl-piperazin-1-yl)-ethanone]
16.9 | CN(Cc1ccc(C(F)(F)F)c(F)c1)[C@H]1CN(C(=O)CN2CCN(S(=O)(=O)N(C)C)CC2)C[C@@H]1c1ccc(Cl)c(Cl)c1 (racemic) [Example 116, 4-(2-{(3SR,4RS)-3-(3,4-Dichloro-phenyl)-4-[(3-fluoro-4-trifluoromethyl-benzyl)-methyl-amino]-pyrrolidin-1-yl}-2-oxo-ethyl)-piperazine-1-sulfonic acid dimethylamide]
19.3 | CN(C)CCN1CCN(CC(=O)N2C[C@H](c3ccc(Cl)c(Cl)c3)[C@@H](N(C)Cc3ccc(C(F)(F)F)c(F)c3)C2)CC1 (racemic) [Example 117, 1-{(3SR,4RS)-3-(3,4-Dichloro-phenyl)-4-[(3-fluoro-4-trifluoromethyl-benzyl)-methyl-amino]-pyrrolidin-1-yl}-2-[4-(2-dimethylamino-ethyl)-piperazin-1-yl]-ethanone]
11.2 | CN(Cc1ccc(C(F)(F)F)c(F)c1)[C@H]1CN(C(=O)CN2CCN(CCC#N)CC2)C[C@@H]1c1ccc(Cl)c(Cl)c1 (racemic) [Example 118, 3-[4-(2-{(3SR,4RS)-3-(3,4-Dichloro-phenyl)-4-[(3-fluoro-4-trifluoromethyl-benzyl)-methyl-amino]-pyrrolidin-1-yl}-2-oxo-ethyl)-piperazin-1-yl]-propionitrile]
96.4 | CN(C)CCNCC(=O)N1C[C@H](c2ccc(Cl)c(Cl)c2)[C@@H](N(C)Cc2ccc(C(F)(F)F)c(F)c2)C1 (racemic) [Example 124, 1-{(3SR,4RS)-3-(3,4-Dichloro-phenyl)-4-[(3-fluoro-4-trifluoromethyl-benzyl)-methyl-amino]-pyrrolidin-1-yl}-2-(2-dimethylamino-ethylamino)-ethanone]
76.8 | CN(C)CCCNCC(=O)N1C[C@H](c2ccc(Cl)c(Cl)c2)[C@@H](N(C)Cc2ccc(C(F)(F)F)c(F)c2)C1 (racemic) [Example 125, 1-{(3SR,4RS)-3-(3,4-Dichloro-phenyl)-4-[(3-fluoro-4-trifluoromethyl-benzyl)-methyl-amino]-pyrrolidin-1-yl}-2-(3-dimethylamino-propylamino)-ethanone]
80.5 | CN(C)CCCN(C)CC(=O)N1C[C@H](c2ccc(Cl)c(Cl)c2)[C@@H](N(C)Cc2ccc(C(F)(F)F)c(F)c2)C1 (racemic) [Example 126, 1-{(3SR,4RS)-3-(3,4-Dichloro-phenyl)-4-[(3-fluoro-4-trifluoromethyl-benzyl)-methyl-amino]-pyrrolidin-1-yl}-2-[(3-dimethylamino-propyl)-methyl-amino]-ethanone]
99.7 | CN(Cc1ccc(C(F)(F)F)c(F)c1)[C@H]1CN(C(=O)CNCCC#N)C[C@@H]1c1ccc(Cl)c(Cl)c1 (racemic) [Example 127, 3-(2-{(3SR,4RS)-3-(3,4-Dichloro-phenyl)-4-[(3-fluoro-4-trifluoromethyl-benzyl)-methyl-amino]-pyrrolidin-1-yl}-2-oxo-ethylamino)-propionitrile]
72 | CN(CCC#N)CC(=O)N1C[C@H](c2ccc(Cl)c(Cl)c2)[C@@H](N(C)Cc2ccc(C(F)(F)F)c(F)c2)C1 (racemic) [Example 128, 3-[(2-{(3SR,4RS)-3-(3,4-Dichloro-phenyl)-4-[(3-fluoro-4-trifluoromethyl-benzyl)-methyl-amino]-pyrrolidin-1-yl}-2-oxo-ethyl)-methyl-amino]-propionitrile]
17.1 | CN(Cc1ccc(C(F)(F)F)c(F)c1)[C@H]1CN(C(=O)CN2CCN(CCCO)CC2)C[C@@H]1c1ccc(Cl)c(Cl)c1 (racemic) [Example 129, 1-{(3SR,4RS)-3-(3,4-Dichloro-phenyl)-4-[(3-fluoro-4-trifluoromethyl-benzyl)-methyl-amino]-pyrrolidin-1-yl}-2-[4-(3-hydroxy-propyl)-piperazin-1-yl]-ethanone]
25.4 | CN(Cc1ccc(C(F)(F)F)c(F)c1)[C@H]1CN(C(=O)CN2CCC(C#N)CC2)C[C@@H]1c1ccc(Cl)c(Cl)c1 (racemic) [Example 130, 1-(2-{(3SR,4RS)-3-(3,4-Dichloro-phenyl)-4-[(3-fluoro-4-trifluoromethyl-benzyl)-methyl-amino]-pyrrolidin-1-yl}-2-oxo-ethyl)-piperidine-4-carbonitrile]
33.4 | CN(Cc1ccc(C(F)(F)F)c(F)c1)[C@H]1CN(C(=O)CN2CCNCC2)C[C@@H]1c1ccc(Cl)c(Cl)c1 (racemic) [Example 131, 1-{(3SR,4RS)-3-(3,4-Dichloro-phenyl)-4-[(3-fluoro-4-trifluoromethyl-benzyl)-methyl-amino]-pyrrolidin-1-yl}-2-piperazin-1-yl-ethanone]
26.3 | CN(Cc1ccc(C(F)(F)F)c(F)c1)[C@H]1CN(C(=O)CN2CCC(O)CC2)C[C@@H]1c1ccc(Cl)c(Cl)c1 (racemic) [Example 132, 1-{(3SR,4RS)-3-(3,4-Dichloro-phenyl)-4-[(3-fluoro-4-trifluoromethyl-benzyl)-methyl-amino]-pyrrolidin-1-yl}-2-(4-hydroxy-piperidin-1-yl)-ethanone]
18.9 | CN(C)C1CCN(CC(=O)N2C[C@H](c3ccc(Cl)c(Cl)c3)[C@@H](N(C)Cc3ccc(C(F)(F)F)c(F)c3)C2)CC1 (racemic) [Example 136, 1-{(3SR,4RS)-3-(3,4-Dichloro-phenyl)-4-[(3-fluoro-4-trifluoromethyl-benzyl)-methyl-amino]-pyrrolidin-1-yl}-2-(4-dimethylamino-piperidin-1-yl)-ethanone]
8.7 | CC(=O)NC1CCN(CC(=O)N2C[C@H](c3ccc(Cl)c(Cl)c3)[C@@H](N(C)Cc3ccc(C(F)(F)F)c(F)c3)C2)CC1 (racemic) [Example 137, N-[1-(2-{(3SR,4RS)-3-(3,4-Dichloro-phenyl)-4-[(3-fluoro-4-trifluoromethyl-benzyl)-methyl-amino]-pyrrolidin-1-yl}-2-oxo-ethyl)-piperidin-4-yl]-acetamide]
8.8 | CC(=O)N1CCN(CC(=O)N2C[C@H](c3ccc(Cl)c(Cl)c3)[C@@H](N(C)Cc3ccc(C(F)(F)F)c(F)c3)C2)CC1 (racemic) [Example 138, 2-(4-Acetyl-piperazin-1-yl)-1-{(3SR,4RS)-3-(3,4-dichloro-phenyl)-4-[(3-fluoro-4-trifluoromethyl-benzyl)-methyl-amino]-pyrrolidin-1-yl}-ethanone]
24.9 | CC1CN(CC(=O)N2C[C@H](c3ccc(Cl)c(Cl)c3)[C@@H](N(C)Cc3ccc(C(F)(F)F)c(F)c3)C2)CC(C)N1 (mixture of isomers) [Example 139, 1-{(3SR,4RS)-3-(3,4-Dichloro-phenyl)-4-[(3-fluoro-4-trifluoromethyl-benzyl)-methyl-amino]-pyrrolidin-1-yl}-2-(3,5-dimethyl-piperazin-1-yl)-ethanone]
19.7 | CC1CN(CC(=O)N2C[C@H](c3ccc(Cl)c(Cl)c3)[C@@H](N(C)Cc3ccc(C(F)(F)F)c(F)c3)C2)CC(C)O1 (mixture of isomers) [Example 142, 1-{(3SR,4RS)-3-(3,4-Dichloro-phenyl)-4-[(3-fluoro-4-trifluoromethyl-benzyl)-methyl-amino]-pyrrolidin-1-yl}-2-(2,6-dimethyl-morpholin-4-yl)-ethanone]
